As a reminder, the Kd is the concentration at which binding is half-saturated.

Results on 1 sequence are retold here after PMC3763380, “Cellular-Level Versus Receptor-Level Response Threshold Hierarchies in T-Cell Activation” (Frontiers in Immunology, 2013).

One test has as its system CTL clone ILA1. Nature of the test: Bioassay: ILA1 CTL response to peptide-pulsed C1R-A2null targets (CD8-null HLA-A2), flow cytometry. It is filed as cell-based. To be noted: read-outs CD107a, MIP-1β, TNF-α, IL-2, IFN-γ. The method, then:
Stable C1R transfectants expressing wild-type HLA-A2 (C1R-A2) or CD8-null HLA-A2 (C1R-A2null), the α3 domain of which contains the double mutation D227K/T228A that abrogates CD8 binding ([30]), were pulsed with peptide as indicated for 1 h at 37°C. For each condition, assays were set up simultaneously in 96-well plates using 4.5 × 10^5 C1R cells per well, thereby ensuring that all cellular parameters were consistent across ligand stimulations. Subsequently, brefeldin A (10 μg/ml; BD Biosciences) and monensin (0.7 μl/ml; BD Biosciences) were added together with a pre-titred concentration of the directly conjugated monoclonal antibody (mAb) αCD107a-FITC [BD Pharmingen; Ref. ([31])]. […]
Stained cell samples were acquired and recorded using a customized FACS Aria II flow cytometer (BD Biosciences) equipped for the simultaneous detection of 18 fluorescent parameters. […] The following gating tree was applied: (i) single cells were identified based on their light scatter properties; (ii) Boolean gating was carried out to exclude artifacts and fluorochrome aggregates; (iii) viable CD3^+CD19^− events were selected; (iv) outliers were eliminated in a side-scatter versus CD3 display; and (v) gates were set on cells positive for individual functional read-outs. […]

The next test addresses ILA1 TCR. Conditions: SPR, ILA1 TCR/pMHCI; not first reported here (footnote Table 1); ligands largely characterized previously; ref [27], [28]; cited from earlier work. On the procedure:
Table 1 Biophysical parameters. | column: On-rate (M^−1s^−1); Off-rate (s^−1); KD (M) || Figure 3 Functional variation at the cell population level in response to six different peptide ligands. The CTL clone ILA1 was stimulated for 6 h with peptide-pulsed C1R-A2 targets as indicated. Five functional read-outs (CD107a, MIP-1β, TNF-α, IL-2, and IFN-γ) were measured via flow cytometry. […] (A) Overview of functional profiles. Pie chart segments represent the fraction of cells expressing the number of functions indicated in the key. (B) Detailed analysis of functional profiles at [peptide] = 10^−6 M. Pie charts are extended with arc ...

For “ILAKFLHWL [residues 540–548 (…) of the human telomerase reverse transcriptase protein]”, the “responses at sufficiently high presentation levels” value with CTL clone ILA1 is “strongly attenuated but discernible responses”. Also, at ILA1 TCR, the Kd is 32 µM, the Off-rate was 0.13 s⁻¹ and the On-rate is 4,100 M^−1s^−1.
